US9382254B2, “Compounds and pharmaceutical compositions thereof for the treatment of cystic fibrosis” (Galapagos NV, priority 2013, dated 2016)
pEC50: −log10 of the molar value.

Legend:
CFTR G551D mutant = target: T1, CFTR G551D mutant (Homo sapiens, UniProt P13569, G551D); test: YFP-halide influx assay for the CFTR-G551D mutation; format: cell-based; details: HEK293 cells, forskolin 10.67 μM
T1 construct: expressed in transfected cells; host or cells: HEK293 (reverse transfection with plasmid)
T1 sequence (P13569 whole entry G551D): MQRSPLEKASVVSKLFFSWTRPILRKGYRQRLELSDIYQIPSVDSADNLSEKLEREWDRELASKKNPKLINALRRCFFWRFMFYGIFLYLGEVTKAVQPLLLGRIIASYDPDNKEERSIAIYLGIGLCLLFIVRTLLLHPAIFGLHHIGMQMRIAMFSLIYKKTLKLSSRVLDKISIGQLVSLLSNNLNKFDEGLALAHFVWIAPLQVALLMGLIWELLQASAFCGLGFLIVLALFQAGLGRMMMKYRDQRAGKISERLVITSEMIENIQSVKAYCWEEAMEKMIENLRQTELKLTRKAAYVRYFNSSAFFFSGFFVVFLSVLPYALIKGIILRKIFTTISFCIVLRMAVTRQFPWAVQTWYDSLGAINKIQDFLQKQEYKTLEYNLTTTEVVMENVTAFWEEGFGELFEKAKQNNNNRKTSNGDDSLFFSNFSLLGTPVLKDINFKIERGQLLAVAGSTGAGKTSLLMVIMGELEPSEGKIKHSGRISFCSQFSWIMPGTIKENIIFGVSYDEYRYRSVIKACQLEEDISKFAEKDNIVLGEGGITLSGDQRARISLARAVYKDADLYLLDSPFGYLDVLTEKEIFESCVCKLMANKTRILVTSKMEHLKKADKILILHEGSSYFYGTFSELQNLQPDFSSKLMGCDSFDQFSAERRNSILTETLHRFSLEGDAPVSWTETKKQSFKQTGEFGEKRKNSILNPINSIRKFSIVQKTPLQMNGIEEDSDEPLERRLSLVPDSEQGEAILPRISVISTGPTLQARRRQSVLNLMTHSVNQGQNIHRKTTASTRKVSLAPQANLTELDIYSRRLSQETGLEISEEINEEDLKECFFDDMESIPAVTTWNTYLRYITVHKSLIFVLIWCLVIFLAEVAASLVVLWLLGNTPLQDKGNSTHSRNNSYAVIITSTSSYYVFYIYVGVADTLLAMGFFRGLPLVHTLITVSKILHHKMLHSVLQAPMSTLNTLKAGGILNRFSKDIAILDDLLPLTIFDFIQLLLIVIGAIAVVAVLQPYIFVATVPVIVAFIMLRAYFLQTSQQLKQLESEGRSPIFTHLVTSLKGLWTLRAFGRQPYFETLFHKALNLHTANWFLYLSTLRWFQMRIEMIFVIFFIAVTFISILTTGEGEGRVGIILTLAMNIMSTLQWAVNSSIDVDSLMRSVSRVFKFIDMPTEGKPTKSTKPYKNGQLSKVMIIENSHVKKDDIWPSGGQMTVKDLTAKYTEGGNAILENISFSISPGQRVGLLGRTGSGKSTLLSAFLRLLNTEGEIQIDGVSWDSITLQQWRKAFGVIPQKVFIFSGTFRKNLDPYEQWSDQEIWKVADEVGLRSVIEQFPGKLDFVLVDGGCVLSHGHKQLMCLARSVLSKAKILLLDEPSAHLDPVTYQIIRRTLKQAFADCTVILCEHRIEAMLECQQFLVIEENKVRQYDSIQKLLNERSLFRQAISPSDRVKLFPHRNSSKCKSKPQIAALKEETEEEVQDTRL
Text: The YFP halide influx assay measures the functionality of the cystic fibrosis Transmembrane Conductance regulator (CFTR) channels. The assay is used to evaluate the capacity of compounds to increase the channel opening of existing mutant CFTR channels in the membrane. It makes use of the observation that the yellow fluorescent protein (YFP) variant YFP H148Q, I152L, […] has its fluorescence substantially quenched by halide ions like Cl^− and I^−. (Galietta, Haggie, & Verkman, 2001)
For this purpose, HEK293-cells are seeded in 96 well plates. During seeding, the cells are reverse-transfected with plasmid vectors that direct the expression of the CFTR G551D mutant and of the YFP reporter. Cells are incubated at 37° C., 5% CO2 for 24 hours so as to allow for sufficient expression of the CFTR protein.
(§1) The I^−-induced quenching of fluorescence is recorded immediately after injection of I^− for 7 seconds. The capacity of a compound to increase the channel opening is directly correlated with the decrease in fluorescence, and is expressed as (1-(fluorescence after 7 seconds (F)/fluorescence before injection (F0))) and an EC50 can be derived from a (1-F/F0) vs compound concentration plot.

CFTR ΔF508 mutant = target: T2, CFTR ΔF508 mutant (Homo sapiens, UniProt P13569, DEL508-508); test: YFP-halide influx assay for the CFTR-ΔF508 mutation (384 well, FDSS/μCell); format: cell-based; details: CFBE41o- cells, CFTR-ΔF508, 1×D-PBS, fluorescence after 36 seconds
T2 construct: expressed in transfected cells; host or cells: CFBE41o- (adenoviral transduction)
T2 sequence (P13569 with tags, fused parts or gaps DEL508-508): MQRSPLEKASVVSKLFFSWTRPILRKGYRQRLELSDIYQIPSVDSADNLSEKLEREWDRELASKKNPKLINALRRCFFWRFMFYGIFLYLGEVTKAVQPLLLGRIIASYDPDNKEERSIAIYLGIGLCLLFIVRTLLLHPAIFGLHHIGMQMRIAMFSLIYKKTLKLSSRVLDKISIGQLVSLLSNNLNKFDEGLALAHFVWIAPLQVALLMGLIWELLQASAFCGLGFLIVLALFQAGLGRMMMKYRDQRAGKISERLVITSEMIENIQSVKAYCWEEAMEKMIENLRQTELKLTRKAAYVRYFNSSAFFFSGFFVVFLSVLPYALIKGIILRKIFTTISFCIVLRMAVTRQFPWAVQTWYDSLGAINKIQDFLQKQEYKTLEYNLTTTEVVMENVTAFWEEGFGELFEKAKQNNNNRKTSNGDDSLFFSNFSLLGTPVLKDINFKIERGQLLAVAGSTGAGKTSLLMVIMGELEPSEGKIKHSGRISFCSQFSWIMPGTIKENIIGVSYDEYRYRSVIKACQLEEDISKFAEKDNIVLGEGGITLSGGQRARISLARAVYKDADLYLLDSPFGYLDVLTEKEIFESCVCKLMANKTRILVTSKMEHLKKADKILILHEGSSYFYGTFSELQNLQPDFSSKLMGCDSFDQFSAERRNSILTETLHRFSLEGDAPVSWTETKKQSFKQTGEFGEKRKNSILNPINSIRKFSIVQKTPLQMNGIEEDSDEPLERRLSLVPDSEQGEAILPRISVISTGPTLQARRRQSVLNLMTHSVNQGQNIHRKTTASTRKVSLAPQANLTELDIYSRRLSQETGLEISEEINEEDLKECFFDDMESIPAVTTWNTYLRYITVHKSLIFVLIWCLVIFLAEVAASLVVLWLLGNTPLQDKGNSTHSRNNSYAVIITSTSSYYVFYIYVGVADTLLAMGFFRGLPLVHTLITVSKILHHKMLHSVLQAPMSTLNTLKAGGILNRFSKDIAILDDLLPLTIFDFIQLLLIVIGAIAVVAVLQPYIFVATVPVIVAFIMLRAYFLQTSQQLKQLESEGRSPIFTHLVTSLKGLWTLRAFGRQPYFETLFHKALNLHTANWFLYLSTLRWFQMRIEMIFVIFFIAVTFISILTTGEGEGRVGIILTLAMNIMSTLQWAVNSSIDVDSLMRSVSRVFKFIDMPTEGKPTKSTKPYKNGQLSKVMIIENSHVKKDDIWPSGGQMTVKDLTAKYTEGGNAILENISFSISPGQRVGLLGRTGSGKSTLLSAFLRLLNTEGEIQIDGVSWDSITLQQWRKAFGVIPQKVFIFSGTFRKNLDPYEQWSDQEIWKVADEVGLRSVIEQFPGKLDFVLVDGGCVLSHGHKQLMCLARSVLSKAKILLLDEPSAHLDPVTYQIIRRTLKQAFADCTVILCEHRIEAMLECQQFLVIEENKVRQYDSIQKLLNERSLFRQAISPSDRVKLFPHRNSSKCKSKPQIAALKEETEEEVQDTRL
Text: The YFP halide influx assay measures the functionality of the cystic fibrosis Transmembrane Conductance regulator (CFTR) channels in the cystic fibrosis bronchial epithelium cell line CFBE41o-. The assay is used to evaluate the capacity of compounds to increase the open probability of existing CFTR channels in the membrane. It makes use of the observation that the yellow fluorescent protein (YFP) variant YFP H148Q, I152L has its fluorescence substantially quenched by halide ions like Cl— and I—. (Galietta, Haggie, & Verkman, 2001) (Nagai, et al., 2002)
For this purpose, CFBE41o-cells are seeded in 384 well plates (3000 CFBE cells/well). One day after seeding, the CFBE cells are transduced with adenoviral vectors that direct the expression of the CFTR ΔF508 mutant and of the YFP reporter. Cells are incubated at 27° C., 5% CO2 for 24 hours so as to allow for the proper folding and migration to the membrane of the CFTR channel or treated with a CFTR modulator during 24 h at 37° C.
as §1, with “I— induced” for “I^−-induced”, “recorded […]” for “recorded”, “I—” for “I^−”, “2 min on an FDSS/μCell (Hamamatsu).” for “7 seconds.”, “36” for “7”

With CC(C)(O)C(=O)Nc1sc(S(=O)(=O)c2cc(F)c(F)cc2Cl)cc1C(N)=O [Compound 336, 5-(2-Chloro-4,5-difluoro-benzenesulfonyl)-2-(2-hydroxy-2-methyl-propionylamino)-thiophene-3-carboxylic acid amide] the pEC50 (CFTR G551D mutant) was 6.06 and the pEC50 (CFTR ΔF508 mutant) was 7.91.
CC(C)(O)C(=O)Nc1sc(S(=O)(=O)c2cc(F)ccc2CC(F)(F)F)cc1C(N)=O [Compound 338, 5-[5-fluoro-2-(2,2,2-trifluoroethyl)phenyl]sulfonyl-2-[(2-hydroxy-2-methyl-propanoyl)amino] thiophene-3-carboxamide] showed a pEC50 (CFTR G551D mutant) of 6.07 and a pEC50 (CFTR ΔF508 mutant) of 8.27.
In the case of NC(=O)c1cc(S(=O)(=O)c2cc(F)ccc2Cl)sc1NC(=O)CO [Compound 339, 5-(2-Chloro-5-fluoro-benzensulfonyl)-2-(2-hydroxy-acetylamino)-thiophene-3-carboxylic acid amide], the pEC50 (CFTR G551D mutant) was 5.76 and the pEC50 (CFTR ΔF508 mutant) was 8.09.
With NC(=O)c1cc(S(=O)(=O)c2cc(F)ccc2CC(F)(F)F)sc1NC(=O)CO [Compound 340, 5-[5-Fluoro-2-(2,2,2-trifluoro-ethyl)-benzenesulfonyl]-2-(2-hdyroxy-acetylamino)-thiophene-3-carboxylic acid amide] the pEC50 (CFTR G551D mutant) was 6.32 and the pEC50 (CFTR ΔF508 mutant) was 8.10.
In the case of CC(C)C(O)C(=O)Nc1sc(S(=O)(=O)c2ccc(F)cc2)cc1C(N)=O (stereo not shown) [Compound 341, 5-(4-fluorophenyl)sulfonyl-2-[(2-hydroxy-3-methyl-butanoyl)amino] thiophene-3-carboxamide], the pEC50 (CFTR G551D mutant) was 5.82 and the pEC50 (CFTR ΔF508 mutant) was 7.69.
In the case of CC(C)(C)C(O)C(=O)Nc1sc(S(=O)(=O)c2ccc(F)cc2)cc1C(N)=O (stereo not shown) [Compound 342, 5-(4-fluorophenyl)sulfonyl-2-[(2-hydroxy-3,3-dimethyl-butanoyl)amino] thiophene-3-carboxamide], the pEC50 (CFTR G551D mutant) was 6.11 and the pEC50 (CFTR ΔF508 mutant) was 6.98.
Work on CC(C)CC(O)C(=O)Nc1sc(S(=O)(=O)c2ccc(F)cc2)cc1C(N)=O (stereo not shown) [Compound 343, 5-(4-fluorophenyl)sulfonyl-2-[(2-hydroxy-4-methyl-pentanoyl)amino] thiophene-3-carboxamide] yielded a pEC50 (CFTR G551D mutant) of 5.85 and a pEC50 (CFTR ΔF508 mutant) of 7.03.
In the case of CC(C)(O)C(=O)Nc1sc(S(=O)(=O)c2ccc(C(F)(F)F)cc2)cc1C(N)=O [Compound 344, 2-[(2-hydroxy-2-methyl-propanoyl)amino]-5-[4-(trifluoromethyl)phenyl] sulfonyl-thiophene-3-carboxamide], the pEC50 (CFTR G551D mutant) was 6.63 and the pEC50 (CFTR ΔF508 mutant) was 7.44.
CC(C)C(O)C(=O)Nc1sc(S(=O)(=O)c2ccc(OC(F)(F)F)cc2)cc1C(N)=O (stereo not shown) [Compound 345, 2-[(2-hydroxy-3-methyl-butanoyl)amino]-5-[4-(trifluoromethoxy)phenyl] sulfonyl-thiophene-3-carboxamide] showed a pEC50 (CFTR G551D mutant) of 6.28 and a pEC50 (CFTR ΔF508 mutant) of 6.95.
Compound CC(C)CC(O)C(=O)Nc1sc(S(=O)(=O)c2ccc(OC(F)(F)F)cc2)cc1C(N)=O (stereo not shown) [Compound 346, 2-[(2-hydroxy-4-methyl-pentanoyl)amino]-5-[4-(trifluoromethoxy)phenyl] sulfonyl-thiophene-3-carboxamide] has a pEC50 (CFTR G551D mutant) of 6.17 and a pEC50 (CFTR ΔF508 mutant) of 6.33.
With CC(C)(C)C(O)C(=O)Nc1sc(S(=O)(=O)c2ccc(OC(F)(F)F)cc2)cc1C(N)=O (stereo not shown) [Compound 349, 2-[(2-hydroxy-3,3-dimethyl-butanoyl)amino]-5-[4-(trifluoromethoxy)phenyl] sulfonyl-thiophene-3-carboxamide] the pEC50 (CFTR G551D mutant) was 6.03 and the pEC50 (CFTR ΔF508 mutant) was 6.47.
CC(CO)C(=O)Nc1sc(S(=O)(=O)c2ccc(OC(F)(F)F)cc2)cc1C(N)=O (stereo not shown) [Compound 350, 2-[(3-hydroxy-2-methyl-propanoyl)amino]-5-[4-(trifluoromethoxy)phenyl] sulfonyl-thiophene-3-carboxamide] gave a pEC50 (CFTR G551D mutant) of 6.18 and a pEC50 (CFTR ΔF508 mutant) of 7.41.
With CC(CO)C(=O)Nc1sc(S(=O)(=O)c2cc(F)ccc2OC(F)(F)F)cc1C(N)=O (stereo not shown) [Compound 351, 5-[5-fluoro-2-(trifluoromethoxy)phenyl] sulfonyl-2-[(3-hydroxy-2-methyl-propanoyl)amino] thiophene-3-carboxamide] the pEC50 (CFTR G551D mutant) was 7.43 and the pEC50 (CFTR ΔF508 mutant) was 8.52.
Compound C[C@H](O)C(=O)Nc1sc(S(=O)(=O)c2c(Cl)cc(F)cc2Cl)cc1C(N)=O [Compound 355, 5-(2,6-dichloro-4-fluoro-phenyl)sulfonyl-2-[[(2S)-2-hydroxypropanoyl]amino] thiophene-3-carboxamide] has a pEC50 (CFTR G551D mutant) of 6.03 and a pEC50 (CFTR ΔF508 mutant) of 8.27.
Compound CC(C)[C@H](O)C(=O)Nc1sc(S(=O)(=O)c2ccc(F)cc2C(F)(F)F)cc1C(N)=O [Compound 356, 5-[4-fluoro-2-(trifluoromethyl)phenyl] sulfonyl-2-[[(2S)-2-hydroxy-3-methyl-butanoyl]amino] thiophene-3-carboxamide] has a pEC50 (CFTR G551D mutant) of 6.30 and a pEC50 (CFTR ΔF508 mutant) of 7.76.
Work on NC(=O)c1cc(S(=O)(=O)c2ccc(OC(F)(F)F)cc2)sc1NC(=O)C1(CO)CC1 [Compound 357, 2-[[1-(hydroxymethyl)cyclopropanecarbonyl]amino]-5-[4-(trifluoromethoxy)phenyl] sulfonyl-thiophene-3-carboxamide] yielded a pEC50 (CFTR G551D mutant) of 6.52 and a pEC50 (CFTR ΔF508 mutant) of 7.53.
CC(C)(O)C(=O)Nc1sc(S(=O)(=O)c2ccc(Cl)cc2)cc1C(N)=O [Compound 358, 5-(4-chlorophenyl)sulfonyl-2-[(2-hydroxy-2-methyl-propanoyl)amino] thiophene-3-carboxamide] showed a pEC50 (CFTR G551D mutant) of 5.57 and a pEC50 (CFTR ΔF508 mutant) of 6.96.
CC(CO)C(=O)Nc1sc(S(=O)(=O)c2ccc(F)cc2C(F)(F)F)cc1C(N)=O (stereo not shown) [Compound 359, 5-[4-fluoro-2-(trifluoromethyl)phenyl] sulfonyl-2-[(3-hydroxy-2-methyl-propanoyl)amino] thiophene-3-carboxamide] was tested, and the pEC50 (CFTR G551D mutant) was 5.69 and the pEC50 (CFTR ΔF508 mutant) was 8.02.
In the case of CC(C)[C@H](O)C(=O)Nc1sc(S(=O)(=O)c2ccc(F)cc2Cl)cc1C(N)=O [Compound 361, 5-(2-chloro-4-fluoro-phenyl)sulfonyl-2-[[(2S)-2-hydroxy-3-methyl-butanoyl]amino] thiophene-3-carboxamide], the pEC50 (CFTR G551D mutant) was 6.55 and the pEC50 (CFTR ΔF508 mutant) was 8.15.
In the case of CC(CO)C(=O)Nc1sc(S(=O)(=O)c2ccc(Cl)cc2)cc1C(N)=O (stereo not shown) [Compound 362, 5-(4-chlorophenyl)sulfonyl-2-[(3-hydroxy-2-methyl-propanoyl)amino] thiophene-3-carboxamide], the pEC50 (CFTR G551D mutant) was 5.91 and the pEC50 (CFTR ΔF508 mutant) was 7.65.
With NC(=O)c1cc(S(=O)(=O)c2ccc(OC(F)(F)F)cc2)sc1NC(=O)C1(CO)CCC1 [Compound 364, 2-[[1-(hydroxymethyl)cyclobutanecarbonyl]amino]-5-[4-(trifluoromethoxy)phenyl] sulfonyl-thiophene-3-carboxamide] the pEC50 (CFTR G551D mutant) was 6.44 and the pEC50 (CFTR ΔF508 mutant) was 7.52.
Work on CC(C)(C)[C@H](O)C(=O)Nc1sc(S(=O)(=O)c2ccc(C(F)(F)F)cc2)cc1C(N)=O [Compound 365, 2-[[(2S)-2-hydroxy-3,3-dimethyl-butanoyl]amino]-5-[4-(trifluoromethyl)phenyl] sulfonyl-thiophene-3-carboxamide] yielded a pEC50 (CFTR G551D mutant) of 6.51 and a pEC50 (CFTR ΔF508 mutant) of 7.52.
Compound COc1ccc(OC(F)(F)F)c(S(=O)(=O)c2cc(C(N)=O)c(NC(=O)C(C)CO)s2)c1 (stereo not shown) [Compound 370, 2-[(3-hydroxy-2-methyl-propanoyl)amino]-5-[5-methoxy-2-(trifluoromethoxy)phenyl]sulfonyl-thiophene-3-carboxamide] has a pEC50 (CFTR G551D mutant) of 7.24 and a pEC50 (CFTR ΔF508 mutant) of 8.60.
In the case of COCCOc1ccc(S(=O)(=O)c2cc(C(N)=O)c(NC(=O)C(C)(C)O)s2)cc1 [Compound 371, 2-[(2-hydroxy-2-methyl-propanoyl)amino]-5-[4-(2-methoxyethoxy)phenyl] sulfonyl-1-thiophene-3-carboxamide], the pEC50 (CFTR G551D mutant) was 5.48 and the pEC50 (CFTR ΔF508 mutant) was 6.97.
CC(C)(O)C(=O)Nc1sc(S(=O)(=O)c2cc(C#N)ccc2OC(F)(F)F)cc1C(N)=O [Compound 372, 5-[5-cyano-2-(trifluoromethoxy)phenyl] sulfonyl-2-[(2-hydroxy-2-methyl-propanoyl)amino] thiophene-3-carboxamide] gave a pEC50 (CFTR G551D mutant) of 7.14 and a pEC50 (CFTR ΔF508 mutant) of 8.32.
For CC(C)(O)C(=O)Nc1sc(S(=O)(=O)c2ccc(OC(F)(F)F)c(F)c2F)cc1C(N)=O [Compound 378, 5-[2,3-difluoro-4-(trifluoromethoxy)phenyl] sulfonyl-2-[(2-hydroxy-2-methyl-propanoyl)amino] thiophene-3-carboxamide], the pEC50 (CFTR G551D mutant) was 5.73 and the pEC50 (CFTR ΔF508 mutant) was 7.58.
